In general, Emax refers to the maximal effect, on the per cent scale that the assay sets. As a reminder, the EC50 is the concentration that produces a half-maximal response.

Holding throughout (assay type): cell-based
One experiment concerns the target GAL1R (Homo sapiens, UniProt P47211). In words: Calcium assay, HEK293/Gα16 cells, WT GAL1R. The conditions noted are these: HEK293/Gα16, calcium response (Supplementary Fig. 9a).
Experiment [1] addresses T1, GAL2R mutants (Homo sapiens, UniProt O43603, T267A).
T1 construct: expressed in transfected cells; host or cells: HEK293
T1 sequence (O43603 1-387 T267A): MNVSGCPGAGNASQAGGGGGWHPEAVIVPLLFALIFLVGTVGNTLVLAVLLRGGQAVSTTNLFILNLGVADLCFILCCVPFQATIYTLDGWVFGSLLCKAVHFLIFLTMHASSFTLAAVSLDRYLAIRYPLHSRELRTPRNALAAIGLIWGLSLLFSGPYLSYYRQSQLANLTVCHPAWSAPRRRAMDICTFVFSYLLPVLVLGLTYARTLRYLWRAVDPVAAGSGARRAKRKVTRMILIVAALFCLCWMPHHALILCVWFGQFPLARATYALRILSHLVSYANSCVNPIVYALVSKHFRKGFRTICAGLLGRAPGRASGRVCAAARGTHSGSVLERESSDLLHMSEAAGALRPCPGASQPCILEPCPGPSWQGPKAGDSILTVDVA
In words: Calcium assay, HEK293/Gα16 cells, GAL2R mutants. The conditions noted are these: GAL2R T2677.28A.

The target of experiment [2] is T2, GAL2R mutants (Homo sapiens, UniProt O43603, V259A).
T2 construct: expressed in transfected cells; host or cells: HEK293
T2 sequence (O43603 1-387 V259A): T1 sequence (O43603 1-387 T267A) with V259A, A267T
Put plainly: Calcium assay, HEK293/Gα16 cells, GAL2R mutants. The conditions noted are these: GAL2R V2596.58A.

Where [3] appears, read: response of 100 μM spexin compared to WT, mean ± S.E.M.

Numbering of substitutions follows the chain as printed.

Sequence of GAL1R (P47211 whole entry): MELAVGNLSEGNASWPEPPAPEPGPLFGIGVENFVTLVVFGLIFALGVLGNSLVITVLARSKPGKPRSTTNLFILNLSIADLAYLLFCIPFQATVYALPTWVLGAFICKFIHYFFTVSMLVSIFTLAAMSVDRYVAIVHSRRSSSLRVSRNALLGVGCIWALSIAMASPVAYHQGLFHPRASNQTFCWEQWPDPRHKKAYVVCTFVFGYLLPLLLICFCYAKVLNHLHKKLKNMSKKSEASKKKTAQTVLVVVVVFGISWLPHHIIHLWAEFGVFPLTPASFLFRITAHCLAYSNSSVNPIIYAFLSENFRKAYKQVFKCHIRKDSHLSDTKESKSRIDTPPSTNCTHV

For the substance spexin, at GAL1R, the “activation of GAL1R” value is given as “did not activate”. For the same substance, the Emax on GAL2R mutants [1] (setting [3]) was 19.9±3.4%; at GAL2R mutants [1] (spexin, replicate 1), 26.5588%; on GAL2R mutants [1] (spexin, replicate 2), 17.6424%; at GAL2R mutants [1] (spexin, replicate 3) it was 15.5083%; on GAL2R mutants [2] (setting [3]), 68.4±5.7%; at GAL2R mutants [2] (spexin, replicate 1) it was 60.401%. Besides, the Emax is 65.4165% on GAL2R mutants [2] (spexin, replicate 2) and 79.3756% on GAL2R mutants [2] (spexin, replicate 3). The EC50 on GAL2R mutants [1] (spexin, replicate 1) came out at 0.0008339 µM; at GAL2R mutants [1] (spexin, replicate 2), 10.49 µM; on GAL2R mutants [1] (spexin, replicate 3), 1.506 µM; at GAL2R mutants [2] (spexin, replicate 1), 1.328 µM; on GAL2R mutants [2] (spexin, replicate 2) it was 6.622 µM; at GAL2R mutants [2] (spexin, replicate 3) it was 6.153 µM.

(Values after publication PMC8924211 (Nature Communications, 2022).)
